Experimental data reported in patent US20080280855A1, “Process For the Production of Intermediates For the Preparation of Tricyclic Benzimidazoles” (NYCOMED GmbH, priority 2005, published 2008).
Structures can show the parent of a compound that is named as a salt.

How the values were obtained:
[1] = system: pentagastrin-stimulated acid secretion of the perfused rat stomach; assay: Testing of the secretion-inhibiting action on the perfused rat stomach; conditions: dose 1 μmol/kg i.d. (intraduodenal), anesthetized CD rat, female, continuous i.v. pentagastrin infusion; for Inhibition of acid secretion (%): in vivo

melting point [°C]	Compound	inhibition in vivo at 1 µmol/kg [1] [%]	other results
135 to 137	CCc1ccccc1[C@H](O)CCc1c(C(=O)N(C)C)cc2c(nc(C)n2C)c1O [Example 11, (3R)-6-[3-(2-Ethyl-phenyl)-3-hydroxy-propyl]-7-hydroxy-2,3-dimethyl-3H-benzoimidazole-5-carboxylic Acid Dimethylamide]	–	–
–	CCc1ccccc1[C@@H]1CCc2c(C(=O)N(C)C)cc3c(nc(C)n3C)c2O1 [L, (8S)-(2-Ethyl-phenyl)-2,3-dimethyl-3,6,7,8-tetrahydro-chromeno[7,8-d]imidazole-5-carboxylic Acid Dimethylamide]	–	Inhibition of acid secretion (%) [1]: >70%
215 to 216	Cc1nc2c3c(c(C(=O)N(C)C)cc2[nH]1)CC[C@@H](c1ccccc1)O3 [C, (8S)-2-Methyl-8-phenyl-3,6,7,8-tetrahydro-chromeno[7,8-d]imidazole-5-carboxylic Acid Dimethylamide]	> 90	–
–	Cc1ccccc1[C@@H]1CCc2c(C(=O)N(C)C)cc3c(nc(C)n3C)c2O1 [H, (8S)-2,3-Dimethyl-8-o-tolyl-3,6,7,8-tetrahydro-chromeno[7,8-d]imidazole-5-carboxylic Acid Dimethylamido]	–	Inhibition of acid secretion (%) [1]: 100%
–	Cc1nc2c3c(c(C(=O)N4CCC4)cc2n1C)CC[C@@H](c1ccccc1)O3 [D, (8S)-Azetidin-1-yl-(2,3-dimethyl-8-phenyl-3,6,7,8-tetrahydro-chromeno[7,8-d]imidazol-5-yl)-methanone]	> 50	–
–	Cc1ccccc1[C@@H]1CCc2c(C(=O)NC3CC3)cc3c(nc(C)n3C)c2O1 [W, (8S)-2,3-Dimethyl-8-o-tolyl-3,6,7,8-tetrahydro-chromeno[7,8-d]imidazole-5-carboxylic acid cyclopropylamide]	100	–
–	Cc1nc2c3c(c(C(=O)N(C)C)cc2n1C)CC[C@@H](c1ccc(F)cc1)O3 [G, (8S)-8-(4-Fluoro-phenyl)-2,3-dimethyl-3,6,7,8-tetrahydro-chromeno[7,8-d]imidazole-5-carboxylic Acid Dimethylamide Hydrochloride]	100	–
–	Cc1nc2c3c(c(C(=O)N(C)C)cc2n1C)CC[C@@H](c1ccccc1F)O3 [F, (8S)-8-(2-Fluoro-phenyl)-2,3-dimethyl-3,6,7,8-tetrahydro-chromeno[7,8-d]imidazole-5-carboxylic Acid Dimethylamide]	> 70	–
–	Cc1cc(F)ccc1[C@@H]1CCc2c(C(=O)N(C)C)cc3c(nc(C)n3C)c2O1 [N, (8S)-8-(4-Fluoro-2-methyl-phenyl)-2,3-dimethyl-3,6,7,8-tetrahydro-chromeno[7,8-d]imidazole-5-carboxylic Acid Dimethylamide]	100	–
–	Cc1nc2c3c(c(C(=O)N(C)C)cc2n1C)CC[C@@H](c1ccccc1)O3 [A, (8S)-2,3-Dimethyl-8-phenyl-3,6,7,8-tetrahydro-chromeno[7,8-d]imidazole-5-carboxylic Acid Dimethylamide]	> 60	–
–	Cc1nc2c3c(c(C(=O)N(C)C)cc2n1C)CC[C@@H](c1ccccc1Cl)O3 [I, (8S)-8-(2-Chloro-phenyl)-2,3-dimethyl-3,6,7,8-tetrahydro-chromeno[7,8-d]imidazol-5-carboxylic Acid Dimethylamide]	> 70	–
247 to 249	CNC(=O)c1cc2c(nc(C)n2C)c(O)c1CC[C@@H](O)c1ccccc1 [Example 4, (3R)-7-Hydroxy-6-(3-hydroxy-3-phenyl-propyl)-2,3-dimethyl-3H-benzoimidazole-5-carboxylic Acid Methylamide]	–	–
139 to 140	Cc1ccccc1[C@H](O)CCc1c(C(=O)N(C)C)cc2c(nc(C)n2C)c1O [Example 7, (3R)-7-Hydroxy-6-(3-hydroxy-3-o-tolyl-propyl)-2,3-dimethyl-3H-benzoimidazole-5-carboxylic Acid Dimethylamide]	–	–
–	Cc1sccc1[C@@H]1CCc2c(C(=O)N(C)C)cc3c(nc(C)n3C)c2O1 [V, (8S)-2,3-Dimethyl-8-(2-methyl-thiophen-3-yl)-3,6,7,8-tetrahydro-chromeno[7,8-d]imidazole-5-carboxylic acid dimethylamide]	100	–
265 to 266	Cc1nc2c(O)c(CC[C@@H](O)c3ccccc3)c(C(=O)N3CCC3)cc2n1C [Example 3, (3R)-Azetidin-1-yl-[7-hydroxy-6-(3-hydroxy-3-phenyl-propyl)-2,3-dimethyl-3H-benzoimidazol-5-yl]-methanone]	–	–
145 to 147	Cc1nc2c(O)c(CC[C@@H](O)c3ccc4ccccc4c3)c(C(=O)N(C)C)cc2n1C [Example 10, (3R)-7-Hydroxy-6-(3-hydroxy-3-naphthalen-2-yl-propyl)-2,3-dimethyl-3H-benzoimidazole-5-carboxylic Acid Dimethylamide]	–	–
203 to 205	Cc1ccccc1[C@@H](O)CCc1c(C(=O)N(C)C)cc2c(nc(C)n2C)c1O [Example 25, (3S)-7-Hydroxy-6-(3-hydroxy-3-o-tolyl-propyl)-2,3-dimethyl-3H-benzoimidazole-5-carboxylic Acid Dimethylamide]	–	–
264 to 265	Cc1nc2c(O)c(CC[C@@H](O)c3cccs3)c(C(=O)N(C)C)cc2n1C [Example 12, (3R)-7-Hydroxy-6-(3-hydroxy-3-thiophen-2-yl-propyl)-2,3-dimethyl-3H-benzoimidazole-5-carboxylic Acid Dimethylamide]	–	–
–	Cc1ccccc1[C@@H]1CCc2c(C(=O)N3CCC3)cc3c(nc(C)n3C)c2O1 [Q, (8S)-Azetidin-1-yl-(2,3-dimethyl-8-o-tolyl-3,6,7,8-tetrahydro-chromeno[7,8-d]imidazol-5-yl)-methanone]	100	–
276 to 277	Cc1nc2c(O)c(CC[C@@H](O)c3ccc(F)cc3)c(C(=O)N(C)C)cc2n1C [Example 6, (3R)-6-[3-(4-Fluoro-phenyl)-3-hydroxy-propyl]-7-hydroxy-2,3-dimethyl-3H-benzoimidazole-5-carboxylic Acid Dimethylamide]	–	–
–	CNC(=O)c1cc2c(nc(C)n2C)c2c1CC[C@@H](c1ccccc1)O2 [E, (8S)-2,3-Dimethyl-8-phenyl-3,6,7,8-tetrahydro-chromeno[7,8-d]imidazole-5-carboxylic Acid Methylamide]	> 80	–
–	CNC(=O)c1cc2c(nc(C)n2C)c2c1CC[C@@H](c1ccccc1C)O2 [P, (8S)-2,3-Dimethyl-8-o-tolyl-3,6,7,8-tetrahydro-chromeno[7,8-d]imidazole-5-carboxylic Acid Methylamide]	100	–
142 to 143	Cc1nc2c(O)c(CC[C@@H](O)c3ccccc3)c(C(=O)N(C)C)cc2n1COCC[Si](C)(C)C	–	–
–	Cc1ccccc1[C@@H]1CCc2c(C(=O)N3CCCC3)cc3c(nc(C)n3C)c2O1 [O, (8S)-(2,3-Dimethyl-8-o-tolyl-3,6,7,8-tetrahydro-chromeno[7,8-d]imidazol-5-yl)-pyrrolidin-1-yl-methanone]	> 60	–
